From article PMC6801822, “The Bactericidal Activity of Temporin Analogues Against Methicillin Resistant Staphylococcus aureus” (International Journal of Molecular Sciences, 2019)
Converted amounts (≈) assume the structure as drawn. Read-outs that look alike come from different tables or passages of the source. Non-standard residues stand in square brackets, D forms with d. Residues, ends and D or L forms follow the SMILES beside them. AEEA = NCCOCCOCC(=O)O

What was measured:
[1] = system: MRSA clinical isolate 7569; details: MRSA clinical isolate 7569 (blood); broth microdilution, MHB, 24 h
Procedure: (§2) Antimicrobial activity of peptides was analyzed through determination of MIC parameter according to the standard microdilution technique performed on 96-well plates. Mueller-Hinton broth (MHB, Sigma Aldrich, St. Louis, MO, USA) was used as the working medium for all bacterial strains. Briefly, inoculum was prepared from freshly grown cultures of bacteria being at their exponential phase of growth. Each well of 96-well plates containing 100 µL of serially diluted peptides in PBS at desired concentration was inoculated with 100 µL of 10^5 CFU/mL of bacterial suspension. Then plates were incubated overnight 37 °C and absorbance was read at 600 nm after 24 h. Wells without peptide were treated as the positive control, while uninoculated MHB was defined as the negative control. All measurements were run in triplicates.

[2] = system: HaCaT cells; experiment: LDH release assay (CytoTox96); type: cell-based, human; details: for cytotoxicity (LDH), % of cells: HaCaT, 200 μg/mL
Procedure: (§1) Figure 3 The influence of DAL-PEG-DK5 on physiology of human keratinocytes. The potentially toxic effect of DAL-PEG-DK5 on HaCaT cells was evaluated using (A) MTT and (B) LDH assay. Cells were plated on 96-well plates and incubated overnight. Next, keratinocytes were treated with the peptide at different concentrations (5–200 μg/mL) for 3, 6, 18 h. Mean ± SD n = 2. ** p < 0.005 *** p < 0.001 **** p < 0.0001; 2way ANOVA. (C) Morphology of HaCaT cells was examined by confocal laser scanning microscopy. HaCaT cells were treated with CFS-conjugated DAL-PEG-DK5 (25 μg/mL) for 30 min at 37 °C and were stained with: DAPI and phalloidin for nuclear detection and actin cytoskeleton detection, respectively. Blue – DNA; red – f-actin; green-peptide conjugate; scale bar: 10 μm. Images present single slice of XY stacks.
To assess the effect of peptides on the integrity of the plasma membrane, the LDH release assay was performed using the CytoTox96 nonradioactive cytotoxicity assay kit (Promega, Madison, WI, USA) according to the manufacturer’s instructions. Cytotoxicity was calculated with the formula: % cytotoxicity = 100 × (experimental LDH release/ maximum LDH release), where maximum LDH release is after lysis solution addition (Triton X-100). Relative amounts of LDH release were measured (absorbance at 490 nm) using plate reader SpectraMax (Molecular Device, Wokingham, UK). All assays were performed in triplicate.

[3] = system: MRSA clinical isolate 56A1; details: MRSA clinical isolate 56A1 (skin); broth microdilution, MHB, 24 h
Procedure: as §2

[4] = system: MRSA clinical isolate 2872cv; details: MRSA clinical isolate 2872cv (blood); broth microdilution, MHB, 24 h
Procedure: as §2

[5] = system: MRSA clinical isolate 7501; details: MRSA clinical isolate 7501 (blood); broth microdilution, MHB, 24 h
Procedure: as §2

[6] = system: MRSA clinical isolate 7718; details: MRSA clinical isolate 7718 (blood); broth microdilution, MHB, 24 h
Procedure: as §2

[7] = system: MRSA clinical isolate 4187; details: MRSA clinical isolate 4187 (blood); broth microdilution, MHB, 24 h
Procedure: as §2

[8] = system: MRSA clinical isolate 3417; details: MRSA clinical isolate 3417 (blood); broth microdilution, MHB, 24 h
Procedure: as §2

[9] = system: MRSA clinical isolate 6674; details: MRSA clinical isolate 6674 (blood); broth microdilution, MHB, 24 h
Procedure: as §2

[10] = system: HaCaT cells; experiment: MTT cell viability test; type: cell-based, human
Procedure: as §1
The viability of HaCaT cells was examined by a 3-(4,5-dimethylthiazol-2-yl)-2,5-diphenyltetrazolium bromide (MTT, Sigma-Aldrich) reduction assay. In brief, cells were incubated with 10% (v/v) of a 5 mg/mL MTT solution for 1 to 2 h at 37 °C until purple precipitate is visible and acidified isopropanol was added followed by measuring of the absorbance at a wavelength of 570 nm.

[11] = system: S. aureus USA300 biofilm; experiment: Disruption of mature biofilm, crystal violet; details: mature biofilm (24 h) of USA300, peptide at 4 × MIC (160 μg/mL), n = 3
Procedure: USA300 strain was grown in 96-well plates at 37 °C for 24 h to form biofilm. Peptide was added at desired concentrations and plates were incubated for additional 24 h. […] Mean ± SD n = 3. ** p < 0.0151; one-way ANOVA.
Briefly, USA300 strain grown overnight was diluted 1:100 in TSB + 1% glucose and incubated in 96-well plates at 37 °C for 24 h. After removing media, wells were rinsed with PBS to remove planktonic bacteria before re-filling wells with fresh MHB. Peptide conjugates were added at desired concentrations and plates were incubated at 37 °C for 24 h. After incubation, wells were washed and biofilms were stained with 0.5% (w/v) crystal violet for 30 min. The dye was solubilized with ethanol (95%) and the OD of biofilms was measured.

[12] = system: S. aureus USA300; details: MRSA; equal to 40 μg/mL
Procedure: as §2

[13] = system: S. aureus ATCC 25923; details: S. aureus ATCC 25923; broth microdilution, MHB, 37 °C, 24 h, triplicates
Procedure: as §2

[14] = system: MRSA clinical isolate 1694; details: MRSA clinical isolate 1694 (blood); broth microdilution, MHB, 24 h
Procedure: as §2

[15] = system: S. aureus USA300; experiment: LIVE/DEAD BacLight staining (SYTO9/PI); type: cell-based, Staphylococcus aureus; details: 3 h, n = 2
Procedure: USA300 cells were collected from overnight cultures, at the end of the exponential growth phase and the beginning of the stationary phase, washed and suspended at 2 × 10^7 bacteria/mL and staphylococci were treated with DAL-PEG-DK5 (0.5–50 µg/mL) for 3 h. In order to obtain a standard curve, five different proportions of live and dead bacteria were mixed prior to staining. After the incubation, the 100 µL of bacterial suspensions were transferred to flat bottom black 96-well microtitration plate. Staining solution containing SYTO9 and PI (100 µL) prepared according to manufacturer’s instructions was then mixed with bacterial suspensions. Samples were incubated at room temperature in the dark for 15 min and fluorescence intensity was measured with FlexStation3 Multimode Microplate Reader using a 485 nm excitation filter (for both SYTO9 and PI) and a 530 nm (SYTO9 emission wavelength) and 630 nm (PI emission wavelength) emission filter. The data were analyzed by dividing the fluorescence intensity of the stained bacterial suspensions at green emission by the cell fluorescence intensity of red fluorescence. All samples were prepared in triplicates.

[16] = system: MRSA S. aureus strains (clinical isolates)
Procedure: as §2

[17] = cited from earlier work
Source text: The efficient antibacterial activity of the DAL-PEG-DK5 conjugate may be due to the fact that it has a higher cationic charge than DK5 (+7 vs. +6, respectively). However, a α-helicity must also play an important role in this case. According to a common view about the mechanism underlying the antimicrobial activity of AMPs, formation of hel ...

[18] = system: S. aureus Newman; details: S. aureus Newman; broth microdilution, MHB, 37 °C, 24 h, triplicates
Procedure: as §2

CC[C@H](C)[C@H](NC(=O)COCCOCCNC(=O)[C@H](CCCNC(=N)N)NC(=O)[C@H](CC(C)C)NC(=O)[C@H](Cc1ccccc1)NC(=O)CNC(=O)[C@@H](C)NC(=O)[C@@H](N)Cc1ccc(O)cc1)C(=O)N[C@@H](CCCCN)C(=O)N[C@@H](CCCCN)C(=O)N[C@H](C(=O)N[C@@H](CC(C)C)C(=O)N[C@@H](CO)C(=O)N[C@H](CCCCN)C(=O)N[C@H](C(=O)N[C@@H](CCCCN)C(=O)N[C@@H](CCCCN)C(=O)N[C@@H](CC(C)C)C(=O)N[C@@H](CC(C)C)C(N)=O)[C@@H](C)CC)[C@@H](C)CC [DAL-PEG-DK5] (H-Y[dA]GFLR[AEEA]IKKILS[dK]IKKLL-NH2; N-terminus assumed)
MIC [1]: 40 µg/mL (≈ 17.6 µM) | LDH release from HaCaT cells ([2]; 75 μg/mL): low, but still significant, release of dehydrogenase | cytotoxicity (LDH), % of cells ([2]; 3 and 6 h): 40% | cytotoxicity (LDH), % of cells ([2]; 18 h): 100% | non-toxic dose for HaCaT cells ([2]; based on MTT and LDH data): ≤ 50 µg/mL | MIC [3]: 40 µg/mL (≈ 17.6 µM) | MIC [4]: 40 µg/mL (≈ 17.6 µM) | MIC [5]: 40 µg/mL (≈ 17.6 µM) | MIC [6]: 50 µg/mL (≈ 22 µM) | MIC [7]: 40 µg/mL (≈ 17.6 µM) | MIC [8]: 40 µg/mL (≈ 17.6 µM) | MIC [9]: 40 µg/mL (≈ 17.6 µM) | effect on metabolism of HaCaT cells (MTT) ([10]; 5 to 75 μg/mL, 3, 6 and 18 h, n = 2): did not affect the metabolism of HaCaT cells | effect on metabolically active HaCaT cells (MTT) ([10]; 100 or 200 μg/mL, 3, 6, 18 h): reduced the number of metabolically active cells in a concentration-dependent manner | reduction of biofilm mass [11]: 50% | MIC [12]: 17.56 µM (≈ 40 µg/mL) | MIC [13]: 40 µg/mL (≈ 17.6 µM) | MIC [14]: 70 µg/mL (≈ 30.7 µM) | live bacteria ([15]; USA300, 5 μg/mL): 20% | live bacteria ([15]; USA300, 10 μg/mL): 5% | MIC against the majority of tested MRSA strains (90%) ([16]; conversion of 40 μg/mL): 17.56 µM | MIC against the majority of tested MRSA strains (90%) ([16]; estimate of the discussion): 40 µg/mL | α-helical content ([17]; circular dichroism, 30 mM SDS in water): 35% | cationic charge [17]: +7 | MIC [18]: 140 µg/mL (≈ 61.5 µM)
